ChEMBL document CHEMBL4196088, “Induction of cell killing and autophagy by amphiphilic pyrrolidine derivatives on human pancreatic cancer cells” (Eur J Med Chem, 2018)
pIC50: −log10 of the molar value. Active and inactive are the calls of the source. The rule behind the calls is not given here.

Tests used:
SK-BR-3 = test: Growth inhibition of human SKBR3 cells at 20 uM after 72 hrs; assay type: functional, cell-based
PANC-1 [1] = test: Growth inhibition of human PANC1 cells at 20 uM after 72 hrs; assay type: functional, cell-based
PK9 [2] = test: Growth inhibition of human PK9 cells at 20 uM after 72 hrs by MTT assay; assay type: functional, cell-based
PANC-1 [3] = test: Induction of apoptosis in human PANC1 cells assessed as accumulation at sub-G0/G1 phase at 10 uM after 24 hrs by propidium iodide staining based flow cytometry (reference value: 0.6 to 0.7%); assay type: functional
MIA PaCa-2 = test: Growth inhibition of human MIAPaCa2 cells after 72 hrs by MTT assay; assay type: functional, cell-based; settings: MIA PaCa-2, 72 h
PANC-1 [4] = test: Induction of apoptosis in human PANC1 cells assessed as accumulation at sub-G0/G1 phase at 10 uM after 48 hrs by propidium iodide staining based flow cytometry (reference value: 0.2 to 2.9%); assay type: functional
PANC-1 [5] = test: Induction of apoptosis in human PANC1 cells assessed as accumulation at sub-G0/G1 phase at 10 uM after 72 hrs by propidium iodide staining based flow cytometry (reference value: 1.6 to 3.2%); assay type: functional
PANC-1 [6] = test: Induction of apoptosis in human PANC1 cells assessed as accumulation at sub-G0/G1 phase at 20 uM after 24 hrs by propidium iodide staining based flow cytometry (reference value: 0.6 to 0.7%); assay type: functional
PANC-1 [7] = test: Induction of apoptosis in human PANC1 cells assessed as accumulation at sub-G0/G1 phase at 20 uM after 72 hrs by propidium iodide staining based flow cytometry (reference value: 1.6 to 3.2%); assay type: functional
PANC-1 [8] = test: Growth inhibition of human PANC1 cells after 72 hrs by XTT assay; assay type: functional, cell-based; settings: PANC-1, 72 h
PANC-1 [9] = test: Induction of apoptosis in human PANC1 cells assessed as accumulation at sub-G0/G1 phase at 20 uM after 48 hrs by propidium iodide staining based flow cytometry (reference value: 0.2 to 2.9%); assay type: functional
BXPC-3 [10] = test: Growth inhibition of human BxPC3 cells after 72 hrs by XTT assay; assay type: functional, cell-based; settings: BXPC-3, 72 h
PK9 [11] = test: Growth inhibition of human PK9 cells after 72 hrs by MTT assay; assay type: functional, cell-based; settings: PK9, 72 h
BXPC-3 [12] = test: Induction of apoptosis in human BxPC3 cells harboring pSFFV-Bcl-XL assessed as accumulation at sub-G0/G1 phase at 10 uM after 24 hrs by propidium iodide staining based flow cytometry (reference value: 1.5%); assay type: functional
[13] = Induction of apoptosis in HPNE cells assessed as accumulation at sub-G0/G1 phase at 20 uM after 72 hrs by propidium iodide staining based flow cytometry (reference value: 6.6%); assay type: cell-based; settings: human
BXPC-3 [14] = test: Induction of apoptosis in human BxPC3 cells assessed as accumulation at sub-G0/G1 phase at 20 uM after 72 hrs by propidium iodide staining based flow cytometry (reference value: 3.4%); assay type: functional
[15] = Induction of apoptosis in HPNE cells assessed as accumulation at sub-G0/G1 phase at 10 uM after 24 hrs by propidium iodide staining based flow cytometry (reference value: 0.6%); assay type: cell-based; settings: human
BXPC-3 [16] = test: Induction of apoptosis in human BxPC3 cells assessed as accumulation at sub-G0/G1 phase harboring pSFFV-Bcl-XL at 20 uM after 48 hrs by propidium iodide staining based flow cytometry (reference value: 1.3%); assay type: functional
PK9 [17] = test: Induction of apoptosis in human PK9 cells assessed as accumulation at sub-G0/G1 phase at 20 uM after 72 hrs by propidium iodide staining based flow cytometry (reference value: 4%); assay type: functional
PK9 [18] = test: Induction of apoptosis in human PK9 cells assessed as accumulation at sub-G0/G1 phase at 10 uM after 24 hrs by propidium iodide staining based flow cytometry (reference value: 2.2%); assay type: functional
[19] = Induction of apoptosis in HPNE cells assessed as accumulation at sub-G0/G1 phase at 10 uM after 72 hrs by propidium iodide staining based flow cytometry (reference value: 6.6%); assay type: cell-based; settings: human
PK9 [20] = test: Induction of apoptosis in human PK9 cells assessed as accumulation at sub-G0/G1 phase at 20 uM after 24 hrs by propidium iodide staining based flow cytometry (reference value: 2.2%); assay type: functional
[21] = Induction of apoptosis in HPNE cells assessed as accumulation at sub-G0/G1 phase at 10 uM after 48 hrs by propidium iodide staining based flow cytometry (reference value: 0.7%); assay type: cell-based; settings: human
BXPC-3 [22] = test: Induction of apoptosis in human BxPC3 cells assessed as accumulation at sub-G0/G1 phase at 10 uM after 48 hrs by propidium iodide staining based flow cytometry (reference value: 2.8%); assay type: functional
Fibroblast [23] = test: Induction of apoptosis in human primary fibroblasts assessed as accumulation at sub-G0/G1 phase at 10 uM after 24 hrs by propidium iodide staining based flow cytometry (reference value: 4.8%); assay type: cell-based
PK9 [24] = test: Induction of apoptosis in human PK9 cells assessed as accumulation at sub-G0/G1 phase at 10 uM after 72 hrs by propidium iodide staining based flow cytometry (reference value: 4%); assay type: functional
[25] = Induction of apoptosis in HPNE cells assessed as accumulation at sub-G0/G1 phase at 20 uM after 24 hrs by propidium iodide staining based flow cytometry (reference value: 0.6%); assay type: cell-based; settings: human
BXPC-3 [26] = test: Induction of apoptosis in human BxPC3 cells assessed as accumulation at sub-G0/G1 phase at 20 uM after 48 hrs by propidium iodide staining based flow cytometry (reference value: 2.8%); assay type: functional
Fibroblast [27] = test: Induction of apoptosis in human primary fibroblasts assessed as accumulation at sub-G0/G1 phase at 10 uM after 72 hrs by propidium iodide staining based flow cytometry (reference value: 6.7%); assay type: cell-based
BXPC-3 [28] = test: Induction of apoptosis in human BxPC3 cells harboring pSFFV-Bcl-XL assessed as accumulation at sub-G0/G1 phase at 10 uM after 72 hrs by propidium iodide staining based flow cytometry (reference value: 2%); assay type: functional
BXPC-3 [29] = test: Induction of apoptosis in human BxPC3 cells assessed as accumulation at sub-G0/G1 phase at 20 uM after 24 hrs by propidium iodide staining based flow cytometry (reference value: 2.3%); assay type: functional
Fibroblast [30] = test: Induction of apoptosis in human primary fibroblasts assessed as accumulation at sub-G0/G1 phase at 10 uM after 48 hrs by propidium iodide staining based flow cytometry (reference value: 6.1%); assay type: cell-based
BXPC-3 [31] = test: Induction of apoptosis in human BxPC3 cells assessed as accumulation at sub-G0/G1 phase at 10 uM after 24 hrs by propidium iodide staining based flow cytometry (reference value: 1.8%); assay type: functional
BXPC-3 [32] = test: Induction of apoptosis in human BxPC3 cells harboring pSFFV-Bcl-XL assessed as accumulation at sub-G0/G1 phase at 10 uM after 48 hrs by propidium iodide staining based flow cytometry (reference value: 1.9%); assay type: functional
BXPC-3 [33] = test: Induction of apoptosis in human BxPC3 cells assessed as accumulation at sub-G0/G1 phase harboring pSFFV-Bcl-XL at 20 uM after 72 hrs by propidium iodide staining based flow cytometry (reference value: 1.3%); assay type: functional
BXPC-3 [34] = test: Induction of apoptosis in human BxPC3 cells assessed as accumulation at sub-G0/G1 phase at 10 uM after 72 hrs by propidium iodide staining based flow cytometry (reference value: 3.4%); assay type: functional
BXPC-3 [35] = test: Induction of apoptosis in human BxPC3 cells assessed as accumulation at sub-G0/G1 phase harboring pSFFV-Bcl-XL at 20 uM after 24 hrs by propidium iodide staining based flow cytometry (reference value: 1.2%); assay type: functional
PK9 [36] = test: Induction of apoptosis in human PK9 cells assessed as accumulation at sub-G0/G1 phase at 20 uM after 48 hrs by propidium iodide staining based flow cytometry (reference value: 3.8%); assay type: functional
PK9 [37] = test: Induction of apoptosis in human PK9 cells assessed as accumulation at sub-G0/G1 phase at 10 uM after 48 hrs by propidium iodide staining based flow cytometry (reference value: 3.8%); assay type: functional
[38] = Induction of apoptosis in HPNE cells assessed as accumulation at sub-G0/G1 phase at 20 uM after 48 hrs by propidium iodide staining based flow cytometry (reference value: 0.7%); assay type: cell-based; settings: human

CCCCCCCC/C=C\CCCCCCCCOC[C@@H]1[C@@H](O)[C@@H](O)CN1C(N)=O
growth inhibition (GI) (SK-BR-3): Active
growth inhibition (GI) (PANC-1 [1]): inactive
growth inhibition (GI) (PK9 [2]): inactive

C(=C\c1ccc(-c2ccccc2)cc1)/CCCCCCCCCOC[C@@H]1CCCN1.Cl
Activity (PANC-1 [3]): 1.6%
pIC50 (MIA PaCa-2): 5.08
Activity (PANC-1 [4]): 1.9%
Activity (PANC-1 [5]): 8.4%
Activity (PANC-1 [6]): 7%
Activity (PANC-1 [7]): 11.6%
pIC50 (PANC-1 [8]): 5.14
Activity (PANC-1 [9]): 2.2%
pIC50 (BXPC-3 [10]): 5.15
pIC50 (PK9 [11]): 5.26

CCCCCCCC/C=C\CCCCCCCCOC[C@@H]1[C@@H](O)[C@@H](O)CN1Cc1ccccc1
growth inhibition (GI) (SK-BR-3): Active
growth inhibition (GI) (PANC-1 [1]): inactive
growth inhibition (GI) (PK9 [2]): inactive

CCCCCCCC/C=C\CCCCCCCCOC[C@@H]1[C@@H](O)[C@@H](O)CN1C
growth inhibition (GI) (SK-BR-3): Active
growth inhibition (GI) (PANC-1 [1]): inactive
growth inhibition (GI) (PK9 [2]): inactive

CCCCCCCC/C=C\CCCCCCCCOCC[C@H]1NC[C@H](O)[C@@H]1O
Activity (BXPC-3 [12]): 3%
Activity [13]: 73%
Activity (PANC-1 [3]): 4.7%
Activity (BXPC-3 [14]): 46.2%
Activity [15]: 12.1%
Activity (BXPC-3 [16]): 3.4%
Activity (PK9 [17]): 37.7%
Activity (PANC-1 [4]): 3.9%
Activity (PK9 [18]): 2.8%
Activity [19]: 62.8%
Activity (PANC-1 [5]): 9.7%
Activity (PANC-1 [6]): 5%
Activity (PANC-1 [7]): 22.6%
Activity (PK9 [20]): 8.3%
Activity [21]: 22.2%
Activity (BXPC-3 [22]): 11.5%
Activity (Fibroblast [23]): 8.7%
Activity (PK9 [24]): 2.7%
Activity [25]: 63.8%
Activity (PANC-1 [9]): 13.6%
Activity (BXPC-3 [26]): 32.5%
Activity (Fibroblast [27]): 9.2%
Activity (BXPC-3 [28]): 3.1%
Activity (BXPC-3 [29]): 17.7%
Activity (Fibroblast [30]): 8.2%
Activity (BXPC-3 [31]): 4.6%
Activity (BXPC-3 [32]): 3.1%
Activity (BXPC-3 [33]): 4.1%
Activity (BXPC-3 [34]): 14.6%
Activity (BXPC-3 [35]): 2.3%
Activity (PK9 [36]): 30.5%
Activity (PK9 [37]): 3.4%
Activity [38]: 67.5%

C(=C\c1ccc(-c2ccccc2)cc1)/CCCCCCCCOC[C@@H]1CCCN1.Cl
Activity (PANC-1 [3]): 1%
pIC50 (MIA PaCa-2): 5.43
Activity (PANC-1 [4]): 2.3%
Activity (PANC-1 [5]): 12.2%
Activity (PANC-1 [6]): 0.9%
Activity (PANC-1 [7]): 10.6%
pIC50 (PANC-1 [8]): 5.28
Activity (PANC-1 [9]): 3.2%
pIC50 (BXPC-3 [10]): 5.28
pIC50 (PK9 [11]): 5.41

CCCCCCCC/C=C/CCCCCCCCOC[C@@H]1CCCN1.Cl
Activity (PANC-1 [3]): 1.6%
pIC50 (MIA PaCa-2): 5.38
Activity (PANC-1 [4]): 2.6%
Activity (PANC-1 [5]): 8%
Activity (PANC-1 [6]): 1.2%
Activity (PANC-1 [7]): 2.5%
pIC50 (PANC-1 [8]): 5.28
Activity (PANC-1 [9]): 5.3%
pIC50 (BXPC-3 [10]): 5.28
pIC50 (PK9 [11]): 5.04

CCCCCCCC/C=C\CCCCCCCCOC[C@@H]1CCCN1.Cl
Activity (PANC-1 [3]): 2.4%
pIC50 (MIA PaCa-2): 5.27
Activity (PANC-1 [4]): 4.6%
Activity (PANC-1 [5]): 14.4%
Activity (PANC-1 [6]): 2.2%
Activity (PANC-1 [7]): 14.1%
pIC50 (PANC-1 [8]): 5.33
Activity (PANC-1 [9]): 2.3%
pIC50 (BXPC-3 [10]): 5.28
pIC50 (PK9 [11]): 5.19

CCCCCCCC/C=C\CCCCCCCCOC[C@@H]1[C@@H](O)[C@@H](O)CN1C(C)C
growth inhibition (GI) (SK-BR-3): Active
growth inhibition (GI) (PANC-1 [1]): inactive
growth inhibition (GI) (PK9 [2]): inactive

CCCCCCCC/C=C\CCCCCCCCOC[C@@H]1[C@@H](O)[C@@H](O)CN1C(C)=O
growth inhibition (GI) (SK-BR-3): Active
growth inhibition (GI) (PANC-1 [1]): inactive
growth inhibition (GI) (PK9 [2]): inactive

CCCCCCCC/C=C\CCCCCCCCOC[C@@H]1[C@@H](O)[C@@H](O)CN1CCCC
growth inhibition (GI) (SK-BR-3): Active
growth inhibition (GI) (PANC-1 [1]): inactive
growth inhibition (GI) (PK9 [2]): inactive
